# Assays:
# [1] = not given; remark: listed apart in the source
flash point,SMILES,flash point [1]
59 °C,C[C@@H]1CCCC[C@H]1O (relative stereo) [trans-2-methylcyclohexanol],–
88 °C,CCCC(=O)c1ccccc1 [1-phenyl-1-butanone],–
103 °C,CCC(=O)CCc1ccccc1 [1-phenyl-3-pentanone],–
93 °C,C#CCCCCCCCCCCC [1-tridecyne],–
115 °C,CCCCCCCCCCCO [1-undecanol],–
65 °C,C#CCCCCCCCCC [1-undecyne],–
16 °C,"CCC(C)(C)C(C)(C)C [2,2,3,3-tetramethylpentane]",–
31 °C,"CCC(C)C(C)C(C)(C)C (centres undefined) [2,2,3,4-tetramethylhexane]",–
-24 °C,"CC(C)C(C)(C)C [2,2,3-trimethylbutane]",–
95 °C,"CC(CC(C)(C)C)CC(C)(C)CC(C)(C)C (centres undefined) [2,2,4,4,6,8,8-heptamethylnonane]",–
6 °C,"CC(C)(C)CC(C)(C)C [2,2,4,4-tetramethylpentane]",–
13 °C,"CC(C)CCC(C)(C)C [2,2,5-trimethylhexane]",–
-29 °C,"CCC(C)(C)C [2,2-dimethylbutane]",–
33 °C,"CC1(C)CCCC1=O [2,2-dimethylcyclopentanone]",–
24 °C,"CCCCCC(C)(C)C [2,2-dimethylheptane]",–
-17 °C,"C=C(C)C(C)(C)C [2,3,3-trimethyl-1-butene]",–
15 °C,"CCCC(C)(C)C(C)C [2,3,3-trimethylhexane]",–
31 °C,"CC(C)C(C)C(C)C(C)C (centres undefined) [2,3,4,5-tetramethylhexane]",–
-0 °C,"CC(C)C(C)C(C)C [2,3,4-trimethylpentane]",–
15 °C,"CC(C)CC(C)C(C)C (centres undefined) [2,3,5-trimethylhexane]",–
10 °C,"CC(=O)C(C)=O [2,3-butanedione]",–
-12 °C,"CC1=CCCO1 [2,3-dihydro-5-methylfuran]",–
-24 °C,"C1=COCC1 [2,3-dihydrofuran]",–

flash point,SMILES,flash point [1]
-17 °C,"C=C(C)C(C)CC (centres undefined) [2,3-dimethyl-1-pentene]",–
5 °C,"CCCC(C)C(C)C (centres undefined) [2,3-dimethylhexane]",–
36 °C,"CCCCCC(C)C(C)C (centres undefined) [2,3-dimethyloctane]",–
15 °C,"CCC(C)(C)CC(C)C [2,4,4-trimethylhexane]",–
31 °C,"CC(C)CC(C)CC(C)C [2,4,6-trimethylheptane]",–
54 °C,"Cc1cc(C)nc(C)c1 [2,4,6-trimethylpyridine]",–
15 °C,"CCCC(C)CC(C)C (centres undefined) [2,4-dimethylheptane]",–
47 °C,"Cc1ccnc(C)c1 [2,4-dimethylpyridine]",–
38 °C,"CC(=O)CC(C)=O [2,4-pentanedione]",–
15 °C,"CCC(C)CCC(C)C (centres undefined) [2,5-dimethylheptane]",–
26 °C,"CC(C)CCCC(C)C [2,6-dimethylheptane]",–
-23 °C,CCC(C)S (centres undefined) [2-butanethiol],–
38 °C,CC1=CC2C(CC1)C2(C)C (centres undefined) [2-carene],–
56 °C,O=C1C=CCCC1 [2-cyclohexen-1-one],–
85 °C,CCCCCCCCC(C)O (centres undefined) [2-decanol],–
108 °C,CCCCCCCCCCC(C)=O [2-dodecanone],–
78 °C,CC#CCCCCCCCCC [2-dodecyne],–
56 °C,"CCc1cc(C)ccc1C [2-ethyl-1,4-dimethylbenzene]",–
-26 °C,C=C(CC)CC [2-ethyl-1-butene],–
50 °C,CCCCC(CC)CN (centres undefined) [2-ethyl-1-hexanamine],–
-10 °C,C=C(CC)CCC [2-ethyl-1-pentene],–
21 °C,CCC(C=O)CC [2-ethylbutanal],–

# Second part, the compound before the results:
SMILES,flash point,flash point [1]
"CC(Cl)Cl [1,1-dichloroethane]",-10 °C,–
"CCOC(CC)OCC [1,1-diethoxypropane]",13 °C,–
"COC(C)OC [1,1-dimethoxyethane]",-17 °C,–
"CC1(C)CCCCC1 [1,1-dimethylcyclohexane]",7 °C,–
"Cc1ccc(C)c(C)c1C [1,2,3,4-tetramethylbenzene]",68 °C,–
"Cc1ccc(C)c(C)c1 [1,2,4-trimethylbenzene]",46 °C,–
"CCC(O)CO (centres undefined) [1,2-butanediol]",93 °C,–
"Clc1ccccc1Cl [1,2-dichlorobenzene]",68 °C,–
"CCC(Cl)CCl (centres undefined) [1,2-dichlorobutane]",27 °C,–
"ClCCCl [1,2-dichloroethane]",13 °C,–
"CC(Cl)CCl (centres undefined) [1,2-dichloropropane]",13 °C,–
"Cc1ccc(F)cc1C [1,2-dimethyl-4-fluorobenzene]",40 °C,–
"OCCO [1,2-ethanediol]",108 °C,–
"CCCCC(O)CO (centres undefined) [1,2-hexanediol]",122 °C,–
"CCCC(O)CO (centres undefined) [1,2-pentanediol]",105 °C,–
"CC(N)CN (centres undefined) [1,2-propanediamine]",33 °C,–
"C1=CC=CC=CC=C1 [1,3,5,7-cyclooctatetraene]",22 °C,–
"Clc1cccc(Cl)c1 [1,3-dichlorobenzene]",63 °C,–
"CC(C)c1cccc(C(C)C)c1 [1,3-diisopropylbenzene]",76 °C,–
"NCCCN [1,3-propanediamine]",48 °C,–
"C1COCCO1 [1,4-dioxane]",11 °C,–
"OCCCCCO [1,5-pentanediol]",129 °C,–
"SCCCCCS [1,5-pentanedithiol]",95 °C,–
"C=CCCCCCC=C [1,8-nonadiene]",26 °C,–
CC(O)CN (centres undefined) [1-amino-2-propanol],67 °C,–

SMILES,flash point,flash point [1]
CCc1cccc(Br)c1 [1-bromo-3-ethylbenzene],71 °C,–
CCCCCCCBr [1-bromoheptane],61 °C,–
CCCCCCCCBr [1-bromooctane],78 °C,–
CCCCCBr [1-bromopentane],30 °C,–
CCCCO [1-butanol],34 °C,–
CCCCCC#CCCCCl [1-chloro-4-decyne],87 °C,–
CCCCCCCCCCCl [1-chlorodecane],83 °C,–
CCCCCCCCCl [1-chlorooctane],58 °C,–
CCCCCCCCCCS [1-decanethiol],99 °C,–
C=CCCCCCCCC [1-decene],38 °C,–
CCC1(C)CCCC1 [1-ethyl-1-methylcyclopentane],6 °C,–
C=CCCCCC [1-heptene],-9 °C,–
C#CCCCCC [1-heptyne],-2 °C,–
CCCCCCO [1-hexanol],59 °C,–
C=CCCCC [1-hexene],-26 °C,–
C#CCCCC [1-hexyne],-20 °C,–
CCCCI [1-iodobutane],33 °C,–
CCC[N+](=O)[O-] [1-nitropropane],34 °C,–
CCCCCCCCCO [1-nonanol],98 °C,–
C#CCCCCCC [1-octyne],16 °C,–
C=CCCCCCCCCCCCCC [1-pentadecene],113 °C,–
CCCCCS [1-pentanethiol],18 °C,–
CCCCCO [1-pentanol],49 °C,–
C=CCCC [1-pentene],-51 °C,–
C#CCCC [1-pentyne],-34 °C,–

SMILES,flash point,flash point [1]
"CC(C)(Cl)Cl [2,2-dichloropropane]",-5 °C,–
"OCC(Cl)CCl (centres undefined) [2,3-dichloro-1-propanol]",93 °C,–
"Cc1cccc(N)c1C [2,3-dimethylaniline]",96 °C,–
"Cc1ccc(O)c(C)c1 [2,4-dimethylphenol]",94 °C,–
"CC(=O)CCC(C)=O [2,5-hexanedione]",78 °C,–
CCCCOCCO [2-butoxyethanol],62 °C,–
CCCCOCCOC(C)=O [2-butoxyethylacetate],71 °C,–
CC(Cl)CO (centres undefined) [2-chloro-1-propanol],51 °C,–
CCC(C)Cl (centres undefined) [2-chlorobutane],-15 °C,–
OCCCl [2-chloroethanol],55 °C,–
CCOCCOC(C)=O [2-ethoxyethylacetate],51 °C,–
CCc1ccccc1N [2-ethylaniline],85 °C,–
CCB(CC)CC [triethylborane],–,-36.00 °C
O=P(Oc1ccccc1)(Oc1ccccc1)Oc1ccccc1 [triphenyl phosphate],–,220.00 °C
c1ccc(P(c2ccccc2)c2ccccc2)cc1 [triphenylphosphane],–,180.00 °C
CC(C)OB(OC(C)C)OC(C)C [tripropan-2-yl borate],–,28.00 °C
"Cc1ccc(OP(=O)(Oc2ccc(C)cc2C)Oc2ccc(C)cc2C)c(C)c1 [tris(2,4-dimethylphenyl) phosphate]",–,232.00 °C
O=P(OCCCl)(OCCCl)OCCCl [tris(2-chloroethyl) phosphate],–,232.00 °C
CCCCC(CC)COP(OCC(CC)CCCC)OCC(CC)CCCC (centres undefined) [tris(2-ethylhexyl) phosphite],–,171.00 °C
CC(C)[CH2][Al]([CH2]C(C)C)[CH2]C(C)C [tris(2-methylpropyl)alumane],–,-23.00 °C
Cc1ccc(OP(=O)(Oc2ccc(C)cc2)Oc2ccc(C)cc2)cc1 [tris(4-methylphenyl) phosphate],–,210.00 °C
CCCCCCCCCCCO [undecan-1-ol],–,93.00 °C
S=C([S-])NCCNC(=S)[S-].[Zn+2] [zinc;N-[2-(sulfidocarbothioylamino)ethyl]carbamodithioate],–,90.00 °C
CCCCCCCCCCCCCCCCCC(=O)[O-].CCCCCCCCCCCCCCCCCC(=O)[O-].[Zn+2] [zinc;octadecanoate],–,277.00 °C

# From a flash point compilation (Sun et al. 2020)
